From patent publication US20110033930A1, “METHOD FOR OBTAINING NGN3-EXPRESSING CELLS AND INSULIN PRODUCING-BETA CELLS” (priority 2008, published 2011)
Where two headings read alike, the source gives them in different places.

How the values were obtained:
[1] = test system: E13.5 rat pancreatic explants; experiment: Real-time PCR of lineage markers in cultured pancreatic explants with HDACi; assay type: cell-based; details: for endocrine β/δ lineage: MS275 1 μM, NaB 125 μM; for Arx expression enhanced / Ngn3 expression peak, higher than in controls / increase in PP expression / increase in glucagon expression: day7; for SPP1 expression: especially after 5 and 7 days of culture; for Ngn3 expression profile: from day1; for Pax4 expression: over 7 days of culture; for increase in levels of Mist1 / increase in levels of P48 / increase in levels of amylase: vs control
From the text: The first day post-coitum was taken as embryonic day 0.5 (E0.5). Pregnant female rats at 13.5 days of gestation were killed by CO2asphyxiation, according to the French Animal Care Committee's guidelines. Dorsal pancreatic buds from E13.5 rat embryos were dissected as described previously (2).
(§2) Organ culture, HDACi treatments, BrdU incorporation: Pancreases were laid on 0.45 μm filters (Millipore) at the air-medium interface in Petri dishes, containing RPMI 1640
RNA extraction and real-time PCR: Total RNA was extracted from pools of at least three pancreases using RNeasy Microkit (Qiagen) and reverse transcribed using Superscript reagents (Invitrogen). Real-time PCR was performed with the 7300 Fast real-time PCR System; each reaction consisted of a mix of Taqman® universal PCR master mix with a specific labelled probe (Applied Biosystem) (21). The comparative method of relative quantification (2^−ΔΔct) (38) was used to calculate expression levels of each target gene, normalized to peptidylpropyl isomerase A (ppia/cyclophilin A). The data are presented as fold changes in gene expression. At least three pools of explants were analyzed per condition and results are expressed as means±SEM. Statistical significance was determined using Student's t test.

[2] = test system: E13.5 rat pancreatic explants; experiment: Dose finding of HDACi in organ culture (cell death); details: TSA tested from 50 nM to 200 nM; data not shown
Procedure: (§1) (Invitrogen) supplemented with penicillin (100 U/mL), streptomycin (100 μg/mL), HEPES (10 mmol/L), L-glutamine (2mmol/L), non-essential amino acids (1x, Invitrogen) and 10% heat-inactivated calf serum (HyClone). Cultures were maintained at 37° C. in humidified 95% air/5% CO2. Medium was changed every other day. Explants were cultured in the presence of VPA or TSA (Sigma). We determined the optimal concentration of both inhibitors by testing increasing doses of VPA (from 0.75 mM to 3 mM) and TSA (from 50 nM to 200 nM). […] MS275 and NaB (Sigma) were used at 1 μM and 125 μM, respectively. For cell proliferation assay, 10 μM BrdU (Sigma) was added to the medium during the last hour of culture.

[3] = test system: Total cellular HDAC enzyme activity; experiment: HDAC enzyme activity assay (total cellular HDAC activity of treated explant extracts); assay type: biochemical; details: extracts of cultured rat pancreatic explants treated with 1 mM VPA or 100 nM TSA
Procedure: HDAC enzyme activity assay: Total cellular HDAC enzyme activity was measured using an HDAC assay kit (Millipore). Briefly, 2 μg of control or VPA- or TSA-treated cell extracts (prepared as described above) were incubated in a 96-well plate with a fluorometric substrate in HDAC assay buffer for 45 min at 37° C. An activator solution was then added to release the fluorophore from the deacetylated substrates, and fluorescence was measured in a plate-reading fluorimeter (excitation=390 nm, emission detection=460 nm).
To study the role of HDACs in pancreas development, the inventors treated rat pancreatic explants with VPA and TSA. They cultured E13.5 rat pancreases on floating filters at the air-medium interface for 14 days. Under such conditions, acinar and endocrine cells develop in a way that replicates pancreas development in vivo (2, 21). […] They next measured total HDAC activity from day 0 to day 14 and found a 65.4%±1.6% decrease between the two stages.

[4] = test system: E13.5 rat pancreatic explants; experiment: TUNEL labelling of apoptotic amylase or insulin cells; assay type: cell-based
Procedure: TUNEL labelling: Terminal deoxynucleotidyltransferase-mediated dUTP-biotin nick end labeling (TUNEL) experiments were performed using an in situ cell death detection kit (Roche) and followed by insulin and amylase immunostaining.
The effects of HDACi treatment on pancreatic differentiation are independent of proliferation and apoptosis: The observed effects of HDACi on pancreatic development could be attributed to a direct effect of HDAC inhibition on the differentiation program itself or to an indirect effect on proliferation/apoptosis. First, the inventors asked whether the massive increase in the number of NGN3+ cells was accompanied by an increased proliferation of early PDX1+ pancreatic precursor cells that would give rise to more NGN3+ endocrine progenitor cells (20). Thus, they cultured pancreases for 1 day with or without VPA and TSA and added BrdU to the medium during the last hour of culture. No difference in BrdU incorporation was seen. The percentage of PDX1+/BrdU+ was 30.4±1.4% in control conditions, 29.3±2.3% with VPA and 31.9±1.4% in TSA-treated pancreases. They next determined whether the greater number of NGN3+ cells was associated with increased proliferation of such cells. […] Given the observed increase in glucagon-expressing cells with HDACi treatment, the inventors also tested for increased proliferation of such cells. […]

[5] = test system: E13.5 rat pancreatic explants; experiment: Immunohistochemistry and surface-area quantification of cultured pancreatic explants; assay type: cell-based; details: for NGN3+ cells: immunohistochemical analysis, day7; for increase in the number of glucagon-expressing cells: immunohistological analysis; for number of insulin+ cells: immunohistology, days 5 and 7; for acinar cell development (surface area occupied by amylase+ cells): vs control
From the text: Dorsal pancreatic buds from E13.5 rat embryos were dissected as described previously (2).
as §2

[6] = test system: E13.5 rat pancreatic explants; experiment: Morphology of pancreases cultured with HDACi; assay type: cell-based; details: for morphology of cultured pancreas (branching, cystic structures, acinar structures): after 7 days of culture
From the text: as §2
HDACi treatment suppresses acinar differentiation and promotes ductal differentiation: The inventors first compared the morphology of pancreases cultured in the presence or absence of HDACi.

[7] = test system: E13.5 rat pancreatic explants; experiment: In situ hybridization of Ngn3 transcripts in cultured pancreatic explants; assay type: cell-based; details: day5
Procedure: In situ hybridization: In situ hybridization was performed as previously described (15) and colorimetric development was performed with 5-bromo-4-chloro-3-indolyl phosphate (Promega) and nitroblue tetrazolium (Roche). No signal was obtained when a sense riboprobe was used.

[8] = test system: class I and class II HDACs; details: background, refs 17 and Yoshida et al., 1990; cited from earlier work
[9] = test system: E13.5 rat pancreatic explants; experiment: BrdU incorporation cell proliferation assay in pancreatic explants; assay type: cell-based; details: for proliferative rate for glucagon+ cells: 5-day treatment, vs controls; for percentage of PDX1+/BrdU+: 1 day of culture, BrdU during last hour, control 30.4±1.4%; for proliferation of NGN3+ cells: after 3 days of culture
Procedure: as §1
Immunohistochemistry and quantification: Tissues were fixed in 10% formalin, pre-embedded in low gelling agarose and embedded in paraffin. All sections (4 μm thick) of each pancreatic explant were collected and processed for immunohistochemistry, as described previously (14, 46). Antibodies were used at the following dilutions: mouse anti-insulin (Sigma, 1/2000), guinea pig anti-insulin (DAKO, 1/200), mouse anti-glucagon (Sigma, 1/2000), rabbit anti-amylase (Sigma, 1/300), goat anti-osteopontin/SPP1 (R&D systems, 1/200), rabbit anti-PDXI ((14), 1/1000), mouse anti-BrdU (Amersham, ½), rabbit anti-Ngn3 ((21), 1/1000). The fluorescent secondary antibodies were: fluorescein anti-rabbit and anti-goat antibodies (Jackson Immunoresearch, 1/200), Texas-red anti-mouse antibody (Jackson Immunoresearch, 1/200) Alexa fluor 488 anti-rabbit antibody (Biogenex, 1/400) and AMCA anti-guinea pig antibody (Jackson Immunoresearch, 1/200). Nuclei were stained blue with Hoechst 33342 (0.3 μg/ml, Invitrogen). Ngn3 detection was perfointed as previously described (21) using the Vectastain elite ABC kit (Vector Laboratories). Photographs were taken using a fluorescence microscope (Leitz DMRB, Leica) and digitized using cooled 3CCD cameras (C5810 or C7780, Hamamatsu). The surface area of each staining was quantified with IPLab (Scanalytics). The surface areas per section were summed to obtain the total surface area per explant in mm2. At least three explants were analyzed per condition and results are expressed as means±SEM. Statistical significance was determined using Student's t test.
Thus, they cultured pancreases for 1 day with or without VPA and TSA and added BrdU to the medium during the last hour of culture.

[10] = real-time PCR, 7 days of culture

Compound	endocrine β/δ lineage [1]	decrease in HDAC activity [3]	NeuroD1 expression ([1]; real-time PCR)	insulin expression [1, 10]	somatostatin expression [1, 10]	Arx expression enhanced ([1]; real-time PCR)	Ngn3 expression peak, higher than in controls ([1]; real-time PCR) [fold]	increase in PP expression ([1]; real-time PCR) [fold]	increase in glucagon expression ([1]; real-time PCR) [fold]	SPP1 expression ([1]; real-time PCR)	Ngn3 expression profile ([1]; real-time PCR)	Pax4 expression ([1]; real-time PCR)	increase in levels of Mist1 ([1]; real-time PCR)	increase in levels of P48 ([1]; real-time PCR)	increase in levels of amylase ([1]; real-time PCR)	NGN3+ cells [5]	increase in the number of glucagon-expressing cells [5] [fold]	number of insulin+ cells [5]	acinar cell development (surface area occupied by amylase+ cells) [5]	morphology of cultured pancreas (branching, cystic structures, acinar structures) [6]	further results
Nc1ccccc1NC(=O)c1ccc(CNC(=O)OCc2cccnc2)cc1 [MS275]	results similar to those with VPA																				
CCCC(=O)[O-].[Na+] [NaB, sodium butyrate]	results similar to those with TSA																				
CC(/C=C/C(=O)NO)=C\[C@@H](C)C(=O)c1ccc(N(C)C)cc1 [TSA, trichostatin A]		99.2%±0.9%	strongly activated	no differences	no differences	~11 fold	14	6	25	major increase	dramatic increase	strongly activated	strongly reduced	strongly reduced	strongly reduced	many were present	4	no differences	much lower	the tips of the branched epithelium formed cystic structures	concentrations that result in increased cell death [2]: above 125 nM; somatostatin expression ([1]; after 14 days in culture, data not shown): increased; insulin expression increased compared with controls ([1]; real-time PCR, day9): 2 fold; insulin expression increased compared with controls ([1]; real-time PCR, day11): 3 fold; insulin expression increased compared with controls ([1]; real-time PCR, day14): 5 fold; number of apoptotic cells expressing amylase or insulin ([4]; TUNEL method): neither VPA nor TSA treatments modified the number of apoptotic cells; morphology: translucent buds at the periphery of the pancreas ([6]; after 11 days of culture): developed translucent buds; Ngn3 mRNA expression by in situ hybridization [7]: enhanced Ngn3 expression; HDAC class selectivity [8]: inhibits both class I and class II HDACs; proliferative rate for glucagon+ cells [9]: no difference; percentage of PDX1+/BrdU+ [9]: 31.9±1.4%; proliferation of NGN3+ cells [9]: neither VPA nor TSA increased the proliferation
CCCC(CCC)C(=O)O [VPA, valproic acid]		93.2%±2.3%	significantly lower	dramatic decrease	almost full abolition	around 3 fold	14	4	5	major increase	dramatic increase	dramatic decrease	strongly reduced	strongly reduced	strongly reduced	many were present	4	major decrease	much lower	the tips of the branched epithelium formed cystic structures	insulin expression ([1]; tissues cultured for 14 days): remained dramatically low; number of apoptotic cells expressing amylase or insulin [4]: neither VPA nor TSA treatments modified the number of apoptotic cells; insulin+ cells observed immunohistochemically ([5]; tissues cultured for 14 days): Few; Ngn3 mRNA expression by in situ hybridization [7]: enhanced Ngn3 expression; HDAC class selectivity [8]: preferentially targets class I HDACs; proliferative rate for glucagon+ cells [9]: no difference; percentage of PDX1+/BrdU+ [9]: 29.3±2.3%; proliferation of NGN3+ cells [9]: neither VPA nor TSA increased the proliferation
